In this experiment the test system is rabbit corneas thermally burned (corneal scarring, fibroblast proliferation, neovascularization). Put plainly: Thermal corneal burn in rabbit eyes, topical eye drops for two weeks, blind histopathology (H&E). In kind it is in vivo. The protocol:
26 rabbits were tranquilized with acetylpromazine maleate, 16 mg/kg intramuscularly. 2% lidocaine HCl eye drops were instilled in each eye for corneal anesthesia. Once the corneas were anesthetized, an eyelid speculum was inserted and the lids were then separated. The corneas of each eye were thermally coagulated with the tip of a battery-powered ophthalmic cautery. […] Two drops of solution A, B or C were instilled in designated treated eyes every 15 min for 6 hrs., then every 2 hrs. for 12 hrs. Following this, two eye drops of the same solutions were instilled four times a day. Daily eye examination was performed and photographs were taken. Two weeks after treatment the rabbits were sacrificed by […] intracardiac injection of T-61 ([…]). Subsequently, the rabbits, eyeballs were enucleated, the globes placed in Bounri's solution (10% formalin solution) and submitted for histopathology cell analysis. The eyes were fixed with 10% formalin solution and labeled right (R) and left (L), as appropriate sectioned and stained with H & E (hematoxylin & eosin stains). Histological sections were read by a pathologist without knowledge of the previously undertaken experimental procedure (blind test).

These results are taken from patent publication US5922319A, “Methods of treating eye conditions with human leukocyte elastase (HLE) inhibitory agents” (University of Kentucky Research Foundation, priority 1989, dated 1999).

For `COC(=O)CCC(=O)N[C@@H](C)C(=O)N[C@@H](CCCCNC(=O)OCc1ccccc1)C(=O)N1CCC[C@H]1C(=O)CN(C(=O)Sc1nnnn1-c1ccccc1)C(C)C` [Compound 2, S-(1-phenyl-5-tetrazoyl)-N-[methoxysuccinyl-alanyl-(Nε -Carbobenzoxy)lysylprolylmethyl]-N-isopropyl-thiocarbamate], the “Microscopic description of rabbit eyes: intensity of the reaction compared with the untreated specimen” value (Solution B, 10 μg/ml in normal saline with 1.4% w/v polyvinyl alcohol, eye drops, two weeks after corneal burn) is reported as “The reaction is not quite as intense”. The “Protection against scarring due to corneal burns (magnitude)” value (Solution C, 50 μg/ml, versus untreated eyes) is recorded as “tenfold”. For the setting “ophthalmic solutions B or C, rabbit corneal burn”, the “Overall effect of ophthalmic solutions on fibrosis, neovascularization and inflammation in corneal wound-healing” value is “effective in reducing fibrosis, neovascularization and inflammation”.
